Here are results for 17 molecules from patent US20200131669A1, “CYCLIC PEPTIDE COMPOUND HAVING HIGH MEMBRANE PERMEABILITY, AND LIBRARY CONTAINING SAME” (Chugai Seiyaku Kabushiki Kaisha, priority 2017, published 2020).

Starred links: 1 amine or outer side, 2 acyl side, 3 side chain; linkers in the order of their positions; H or OH if unused. Positions of bridges follow the written chain, without caps; N, C: chain ends. Non-standard residues stand in square brackets, D forms with d. Residues, ends and D or L forms follow the SMILES beside them. *: point of attachment. NMeAbu(4-morpholino) = CN[C@@H](CCN1CCOCC1)C(=O)O; NMePhe(3-Cl) = CN[C@@H](Cc1cccc(Cl)c1)C(=O)O; NMehPhe = CN[C@@H](CCc1ccccc1)C(=O)O; X3 = O=C([C@H](CCCCO)N[*:1])[*:2]; NMeF = CN[C@@H](Cc1ccccc1)C(=O)O; NMeGABA = CN(CCCC(=O)[*:2])[*:1]; Butyl(3-Me,3-OH) = CC(C)(O)CC*; CH2CONHtBu = CC(C)(C)NC(=O)C*; NMeL = CN[C@@H](CC(C)C)C(=O)O; NMeV = CN[C@H](C(=O)O)C(C)C; NMeA = CN[C@@H](C)C(=O)O; Piperidide = C1CCN(*)CC1; NBuGly = CCCCNCC(=O)O; Isopentyl = CC(C)CC*; NPrGly = CCCNCC(=O)O; Sar = CNCC(=O)O; tBu = CC(C)(C)*

The nature of the first data set: Caco-2 membrane permeability, improved method as used in the following Examples (96-well, 20 to 24 h preincubation). The following applies: Caco-2, Caco-2. It is filed as in vitro ADME. The method in brief: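 Caco-2 monolayers were grown three weeks and preincubated 20–24 h at 37 °C with compound in DMEM+FaSSIF (1% DMSO) apically. The assay then used compound in FaSSIF/HBSS (1% DMSO, pH 6.0) apically and HBSS with 4% BSA (pH 7.4) basally. Basal samples were taken at 180 min for LC/MS, and Papp (cm/sec) was calculated.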
In the case of `CC(C)C[C@@H]1NC(=O)[C@H](CCc2ccccc2)N(C)C(=O)[C@@H](C(C)C)NC(=O)C[C@@H](C(=O)N2CCCCC2)NC(=O)[C@H](CC(C)C)N(C)C(=O)[C@H](Cc2ccccc2)N(C)C(=O)[C@H](COCCC(C)(C)O)NC(=O)[C@H](CC(C)C)N(C)C(=O)CN(C)C(=O)[C@H]([C@@H](C)O)NC(=O)[C@H](CC(C)C)N(C)C1=O` [pd438] ([dV][NMehPhe]L[NMeL]T[Sar][NMeL]S(Butyl(3-Me,3-OH))[NMeF][NMeL]D-Piperidide; lactam N-11), the Papp A→B came out at 1 ×10⁻⁶ cm/s.

As for `CC(C)C[C@@H]1NC(=O)[C@H](CC(C)C)N(C)C(=O)C[C@@H](C(=O)N2CCCCC2)NC(=O)[C@H](CC(C)C)N(C)C(=O)CN(C)C(=O)[C@H](CCC(=O)N(C)C)NC(=O)[C@H](CC(C)C)N(C)C(=O)[C@H](Cc2ccccc2)N(C)C(=O)[C@H](CC(C)C)NC(=O)[C@H](Cc2ccccc2)N(C)C(=O)[C@H](CC(C)C)N(C)C1=O` [pd439] ([NMeL]L[NMeL][NMeF]L[NMeF][NMeL]E(NMe2)[Sar][NMeL]D-Piperidide; lactam N-11), the Papp A→B is 1 ×10⁻⁶ cm/s.

Still in this data set, the particulars now being: human, Caco-2, Caco-2.
Turning to `CC(C)CCOC[C@@H]1NC(=O)[C@H](CC(C)C)N(C)C(=O)CN(C)C(=O)[C@H]([C@@H](C)O)NC(=O)[C@H](CC(C)C)N(C)C(=O)[C@H](COCCC(C)(C)O)NC(=O)[C@H](Cc2ccccc2)N(C)C(=O)[C@@H](C(C)C)NC(=O)C[C@@H](C(=O)N2CCCCC2)NC(=O)[C@H](CC(C)C)N(C)C(=O)[C@H](Cc2ccccc2)N(C)C1=O` [pd433] ([dV][NMeF]S(Butyl(3-Me,3-OH))[NMeL]T[Sar][NMeL]S(Isopentyl)[NMeF][NMeL]D-Piperidide; lactam N-11), the Papp A→B at 180 min came out at 1.4 ×10⁻⁶ cm/s.

With `CC(C)C[C@@H]1NC(=O)[C@H](Cc2ccccc2)N(C)C(=O)[C@@H](C(C)C)NC(=O)C[C@@H](C(=O)N2CCCCC2)NC(=O)[C@H](CC(C)C)N(C)C(=O)[C@H](Cc2cccc(Cl)c2)N(C)C(=O)[C@H](COCCC(C)(C)O)NC(=O)[C@H](CC(C)C)N(C)C(=O)CN(C)C(=O)[C@H]([C@@H](C)O)NC(=O)[C@H](C(C)C)N(C)C1=O` [pd434] ([dV][NMeF]L[NMeV]T[Sar][NMeL]S(Butyl(3-Me,3-OH))[NMePhe(3-Cl)][NMeL]D-Piperidide; lactam N-11), the Papp A→B at 180 min stood at 1.7 ×10⁻⁶ cm/s.

`CC[C@H](C)[C@@H]1NC(=O)[C@H](C(C)C)N(C)C(=O)CCCN(C)C(=O)C[C@@H](C(=O)N2CCCCC2)NC(=O)[C@H](CC(C)C)N(C)C(=O)[C@H](CC(C)C)N(C)C(=O)[C@H]([C@@H](C)O)NC(=O)[C@H](CC(C)C)N(C)C(=O)[C@H](COCCC(C)(C)O)NC(=O)[C@H](Cc2cccc(Cl)c2)N(C)C(=O)[C@H](Cc2ccccc2)N(C)C1=O` [pd435] ([NMeGABA][NMeV]I[NMeF][NMePhe(3-Cl)]S(Butyl(3-Me,3-OH))[NMeL]T[NMeL][NMeL]D-Piperidide; lactam N-11) registered a Papp A→B at 180 min of 1.4 ×10⁻⁶ cm/s.

With `CC(C)C[C@@H]1NC(=O)[C@H](Cc2ccccc2)N(C)C(=O)[C@H](CC(C)C)N(C)C(=O)[C@H](COCCC(C)(C)O)NC(=O)[C@H](C)N(C)C(=O)C[C@@H](C(=O)N2CCCCC2)NC(=O)[C@H](CC(C)C)N(C)C(=O)CN(C)C(=O)[C@H]([C@@H](C)O)NC(=O)[C@H](CC(C)C)N(C)C(=O)[C@H](CCc2ccccc2)N(C)C1=O` [pd436] ([NMeA]S(Butyl(3-Me,3-OH))[NMeL][NMeF]L[NMehPhe][NMeL]T[Sar][NMeL]D-Piperidide; lactam N-11), the Papp A→B at 180 min was 1.3 ×10⁻⁶ cm/s.

`CC(C)C[C@@H]1NC(=O)[C@H](C)N(C)C(=O)C[C@@H](C(=O)N2CCCCC2)NC(=O)[C@H](CC(C)C)N(C)C(=O)CN(C)C(=O)[C@H]([C@@H](C)O)NC(=O)[C@H](CC(C)C)N(C)C(=O)[C@H](CCc2ccccc2)N(C)C(=O)[C@H](COCCC(C)(C)O)NC(=O)[C@H](Cc2ccccc2)N(C)C(=O)[C@H](CC(C)C)N(C)C1=O` [pd437] ([NMeA]L[NMeL][NMeF]S(Butyl(3-Me,3-OH))[NMehPhe][NMeL]T[Sar][NMeL]D-Piperidide; lactam N-11) registered a Papp A→B at 180 min of 1.3 ×10⁻⁶ cm/s.

The molecule `CC(C)C[C@@H]1NC(=O)[C@H](Cc2ccccc2)N(C)C(=O)[C@H](C)N(C)C(=O)C[C@@H](C(=O)N2CCCCC2)NC(=O)[C@H](CC(C)C)N(C)C(=O)[C@H](CC(C)C)N(C)C(=O)[C@H](COC(C)(C)C)NC(=O)[C@H](CC(C)C)N(C)C(=O)[C@H](C)N(C)C(=O)[C@H](CCC(=O)N(C)C)NC(=O)[C@H](CC(C)C)N(C)C1=O` [pd440] ([NMeA][NMeF]L[NMeL]E(NMe2)[NMeA][NMeL]S(tBu)[NMeL][NMeL]D-Piperidide; lactam N-11) returned a Papp A→B at 180 min of 4 ×10⁻⁶ cm/s.

`CC(C)C[C@@H]1NC(=O)[C@H](Cc2ccccc2)N(C)C(=O)[C@@H](CC(C)C)NC(=O)C[C@@H](C(=O)N2CCCCC2)NC(=O)[C@H](CC(C)C)N(C)C(=O)[C@H](Cc2ccccc2)N(C)C(=O)[C@H](COC(C)(C)C)NC(=O)[C@H](CC(C)C)N(C)C(=O)CN(C)C(=O)[C@H](CCC(=O)N(C)C)NC(=O)[C@H](CC(C)C)N(C)C1=O` [pd441] ([dL][NMeF]L[NMeL]E(NMe2)[Sar][NMeL]S(tBu)[NMeF][NMeL]D-Piperidide; lactam N-11): the Papp A→B at 180 min came out at 1.7 ×10⁻⁶ cm/s.

On to `CCCCN1CC(=O)N(C)[C@@H](Cc2ccccc2)C(=O)N[C@@H]([C@@H](C)CC)C(=O)N(C)[C@@H](CC(C)C)C(=O)N[C@@H]([C@@H](C)O)C(=O)N(CCC)CC(=O)N(C)[C@@H](Cc2ccccc2)C(=O)N(C)[C@@H](CC(C)C)C(=O)N[C@@H](COCC(=O)NC(C)(C)C)C(=O)N(C)[C@@H](C)C(=O)N[C@H](C(=O)N2CCCCC2)CC1=O` [pd443] ([NBuGly][NMeF]I[NMeL]T[NPrGly][NMeF][NMeL]S(CH2CONHtBu)[NMeA]D-Piperidide; lactam N-11), for which the Papp A→B at 180 min came to 1 ×10⁻⁶ cm/s.

Molecule `CC(C)C[C@H]1C(=O)N[C@H](C(=O)N2CCCCC2)CC(=O)N(C)[C@@H](C)C(=O)N[C@@H](C(C)C)C(=O)N(C)[C@@H](CC(C)C)C(=O)N(C)[C@@H](Cc2ccccc2)C(=O)N[C@@H](C(C)C)C(=O)N(C)[C@@H](Cc2ccccc2)C(=O)N(C)[C@@H](CC(C)C)C(=O)N[C@@H](CCCCO)C(=O)N(C)CC(=O)N1C` [pd448] ([NMeA]V[NMeL][NMeF]V[NMeF][NMeL][X3][Sar][NMeL]D-Piperidide; lactam N-11) registered a Papp A→B at 180 min of 1.3 ×10⁻⁶ cm/s.

In turn, `CC(C)C[C@@H]1NC(=O)[C@H](Cc2ccccc2)N(C)C(=O)[C@@H](CC(C)C)NC(=O)C[C@@H](C(=O)N2CCCCC2)NC(=O)[C@H](C(C)C)N(C)C(=O)[C@H](Cc2ccccc2)N(C)C(=O)[C@H](COC(C)(C)C)NC(=O)[C@H](CC(C)C)N(C)C(=O)CN(C)C(=O)[C@H](CCCCO)NC(=O)[C@H](CC(C)C)N(C)C1=O` [pd449] ([dL][NMeF]L[NMeL][X3][Sar][NMeL]S(tBu)[NMeF][NMeV]D-Piperidide; lactam N-11) registered a Papp A→B at 180 min of 2 ×10⁻⁶ cm/s.

With `CC(C)C[C@@H]1NC(=O)[C@H](Cc2ccccc2)N(C)C(=O)[C@@H](C(C)C)NC(=O)C[C@@H](C(=O)N2CCCCC2)NC(=O)[C@H](C(C)C)N(C)C(=O)[C@H](Cc2ccccc2)N(C)C(=O)[C@H](COC(C)(C)C)NC(=O)[C@H](CC(C)C)N(C)C(=O)CN(C)C(=O)[C@H](CCCCO)NC(=O)[C@H](CC(C)C)N(C)C1=O` [pd450] ([dV][NMeF]L[NMeL][X3][Sar][NMeL]S(tBu)[NMeF][NMeV]D-Piperidide; lactam N-11), the Papp A→B at 180 min came out at 1.8 ×10⁻⁶ cm/s.

Consider `CC(C)C[C@@H]1NC(=O)[C@H](C)N(C)C(=O)C[C@@H](C(=O)N2CCCCC2)NC(=O)[C@H](CC(C)C)N(C)C(=O)CN(C)C(=O)[C@H](CCCCO)NC(=O)[C@H](CC(C)C)N(C)C(=O)[C@H](Cc2ccccc2)N(C)C(=O)[C@H](CC(C)C)NC(=O)[C@H](Cc2ccccc2)N(C)C(=O)[C@H](CC(C)C)N(C)C1=O` [pd451] ([NMeA]L[NMeL][NMeF]L[NMeF][NMeL][X3][Sar][NMeL]D-Piperidide; lactam N-11), for which the Papp A→B at 180 min came out at 4.1 ×10⁻⁶ cm/s.

The molecule `CCCCN1CC(=O)N(C)[C@@H](CC(C)C)C(=O)N[C@@H](COC(C)(C)C)C(=O)N(C)[C@@H](Cc2ccccc2)C(=O)N(C)[C@@H](C(C)C)C(=O)N[C@H](C(=O)N2CCCCC2)CC(=O)N[C@H](CC(C)C)C(=O)N(C)[C@@H](Cc2ccccc2)C(=O)N[C@@H](CC(C)C)C(=O)N(C)[C@@H](CCN2CCOCC2)C(=O)N[C@@H]([C@@H](C)O)C1=O` [pd452] ([dL][NMeF]L[NMeAbu(4-morpholino)]T[NBuGly][NMeL]S(tBu)[NMeF][NMeV]D-Piperidide; lactam N-11) displayed a Papp A→B at 180 min of 1.3 ×10⁻⁶ cm/s.

With `CCCCN1CC(=O)N(C)[C@@H](C(C)C)C(=O)N[C@H](C(=O)N2CCCCC2)CC(=O)N(C)[C@@H](C)C(=O)N[C@@H](CC(C)C)C(=O)N(C)[C@@H](CC(C)C)C(=O)N(C)[C@@H](Cc2ccccc2)C(=O)N[C@@H](CC(C)C)C(=O)N(C)[C@@H](Cc2ccccc2)C(=O)N(C)[C@@H](CCN2CCOCC2)C(=O)N[C@@H]([C@@H](C)O)C1=O` [pd453] ([NMeA]L[NMeL][NMeF]L[NMeF][NMeAbu(4-morpholino)]T[NBuGly][NMeV]D-Piperidide; lactam N-11), the Papp A→B at 180 min was found to be 2.3 ×10⁻⁶ cm/s.

Staying with this data set, now noted: human; Papp, Caco-2 membrane permeability, improved method; read-out: Caco-2.
For `CC(C)C[C@H]1C(=O)N[C@@H](C(C)C)C(=O)N(C)[C@@H](Cc2ccccc2)C(=O)N(C)[C@@H](Cc2ccccc2)C(=O)N[C@@H](COC(C)(C)C)C(=O)N(C)[C@@H](CC(C)C)C(=O)N[C@@H](CCCCO)C(=O)N(C)[C@@H](CC(C)C)C(=O)N(C)[C@@H](CC(C)C)C(=O)N[C@H](C(=O)N2CCCCC2)CC(=O)N(C)CCCC(=O)N1C` [pd446] ([NMeGABA][NMeL]V[NMeF][NMeF]S(tBu)[NMeL][X3][NMeL][NMeL]D-Piperidide; lactam N-11), the Papp A→B at 180 min worked out at 1.3 ×10⁻⁶ cm/s.
